Measurements from patent US20110243958A1, “ANTIMICROBIAL AGENTS THAT TARGET BACTERIAL VKOR” (priority 2008, published 2011).
Converted amounts (≈) assume the structure as drawn. “Also recorded” adds a separate entry of the source.

How the values were obtained:
[1] = tested on: M. smegmatis; experiment: microbe, parasite or virus in culture; assay type: cell-based, Mycobacterium smegmatis; settings: for growth of M. smegmatis culture: addition to culture
[2] = molecular target: T1, M. tuberculosis VKOR (MtbVKOR) (Mycobacterium tuberculosis, UniProt I6X5W1); assay type: cell-based
T1 sequence (I6X5W1 1-210): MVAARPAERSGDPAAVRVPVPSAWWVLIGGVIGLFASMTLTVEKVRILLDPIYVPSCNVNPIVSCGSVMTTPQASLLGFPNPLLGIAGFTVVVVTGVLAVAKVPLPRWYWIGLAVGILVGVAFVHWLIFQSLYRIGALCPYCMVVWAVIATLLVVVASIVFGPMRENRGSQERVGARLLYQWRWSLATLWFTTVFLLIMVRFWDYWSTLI

[3] = molecular target: T1, M. tuberculosis VKOR (MtbVKOR); assay type: cell-based; remark: listed apart in the source
[4] = tested on: some species of mycobacteria; settings: cited from earlier work
[5] = in animals; cited from earlier work

| SMILES | levels necessary to inhibit growth in Msmeg [1] | MIC ([1]; Mycolicibacterium smegmatis, M. smegmatis grown in Middlebrook 7H9 medium (defined medium), alamar blue assay, read-out: minimal inhibitory concentration) [mM] | growth of M. smegmatis culture [1] | disulfide bond formation / VKOR activity [2] | levels necessary to inhibit VKOR activity in E. coli [2] | activity of β-galactosidase (increase indicates inhibition of disulfide bond formation) [3] | growth of mycobacteria [4] | anti-coagulant properties [5] |
| --- | --- | --- | --- | --- | --- | --- | --- | --- |
| CC(=O)CC(c1ccccc1)c1c(O)c2ccccc2oc1=O (stereo not drawn) [warfarin] | high (millimolar concs.) | 4.5 (≈ 1390 µg/mL) | caused inhibition of growth | inhibit the tuberculosis VKOR activity; also recorded: inhibit disulfide bond formation | high (millimolar concs.) | significantly increased |  |  |
| CC(=O)CC(c1ccccc1)c1c(O)c2ccccc2oc1=O (stereo not drawn) [sodium warfarin] |  |  | inhibits growth |  |  |  |  |  |
| CC(C)=CCC/C(C)=C/CC/C(C)=C/Cc1c(O)c2ccccc2oc1=O [ferulenol] |  |  |  |  |  |  | inhibit the growth | has anti-coagulant properties |
